Several values for one entry are separate records, joined by “and”; a condition that tells them apart may be missing. Identical values can stand only once. ± gives the uncertainty stated by the source.
Tests used:
[1] = xn = mol fraction of the nth substance listed

CCCCN(CCCC)CCCC
viscosity
Conditions | 293.15 K | 298.15 K | 303.15 K | 308.15 K | 313.15 K | 318.15 K | 323.15 K
100 kPa | – | – | 1.14 ± 0.03 mPa·s and 1 mPa·s | 1.09 ± 0.03 mPa·s | – | – | –
101 kPa | – | 1.273 ± 0.019 mPa·s | 1.157 ± 0.018 mPa·s and 1.155 ± 0.0095 mPa·s | 1.064 ± 0.018 mPa·s and 1.069 ± 0.013 mPa·s | 0.9845 ± 0.012 mPa·s and 1 ± 0.0086 mPa·s | 0.9086 ± 0.011 mPa·s | 0.8422 ± 0.011 mPa·s
101.3 kPa | – | – | – | – | 0.9974 ± 0.012 mPa·s | – | –
101.33 kPa | 1.45 ± 0.016 mPa·s | 1.28 ± 0.014 mPa·s | – | 1.07 ± 0.011 mPa·s | 0.99 ± 0.01 mPa·s | – | 0.863 ± 0.009 mPa·s

CC(C)(N)CO
viscosity
Conditions | 298.15 K | 303.15 K | 308.15 K | 313.15 K | 318.15 K | 323.15 K
100 kPa | 132.3 ± 53 mPa·s | 98.48 ± 39 mPa·s | 69.98 ± 28 mPa·s | 46.99 ± 19 mPa·s | 32.2 ± 13 mPa·s | 24.45 ± 9.8 mPa·s
101 kPa | – | 89 ± 14 mPa·s and 99.48 ± 10 mPa·s | 60.8 ± 9.9 mPa·s | 43.7 ± 7.1 mPa·s and 47.25 ± 4.7 mPa·s | 32.2 ± 5.2 mPa·s | 23.05 ± 3.7 mPa·s and 24.33 ± 2.4 mPa·s

CCCCOC(=O)c1ccccc1C(=O)OCCCC
Conditions | viscosity [mPa·s]
303.15 K, 101.33 kPa | 13.33 ± 0.065

C=CC#N + CCC(C)O
viscosity [mPa·s], [1], 101.33 kPa
Conditions | x1 = 0.1033 | x1 = 0.2014 | x1 = 0.301 | x1 = 0.4055 | x1 = 0.5087 | x1 = 0.6049 | x1 = 0.7009 | x1 = 0.803 | x1 = 0.8992
298.15 K | 1.828 ± 0.022 | 1.319 ± 0.017 | 0.99 ± 0.013 | 0.775 ± 0.01 | 0.63 ± 0.009 | 0.536 ± 0.008 | 0.456 ± 0.007 | 0.418 ± 0.006 | 0.378 ± 0.006
303.15 K | 1.567 ± 0.019 | 1.165 ± 0.015 | 0.887 ± 0.012 | 0.704 ± 0.01 | 0.582 ± 0.008 | 0.499 ± 0.007 | 0.438 ± 0.007 | 0.391 ± 0.006 | 0.358 ± 0.006
308.15 K | 1.361 ± 0.017 | 1.024 ± 0.013 | 0.799 ± 0.011 | 0.644 ± 0.009 | 0.539 ± 0.008 | 0.465 ± 0.007 | 0.413 ± 0.006 | 0.373 ± 0.006 | 0.342 ± 0.005

CCCC[P+](CC)(CC)CC.N#Cc1ccc[n-]1 + OCCN(CCO)CCO
[1], 293.15 K, 100 kPa
Conditions | viscosity [mPa·s]
x1 = 0.018 | 956 ± 140
x1 = 0.089 | 975 ± 150
x1 = 0.104 | 937 ± 140
x1 = 0.223 | 809 ± 120
x1 = 0.413 | 679 ± 100

CC(C)(C)Cl + C1CCOC1
[1], 101 kPa
Conditions | viscosity [mPa·s]
298.15 K, x2 = 0.0634 | 0.4743 ± 0.0055
298.15 K, x2 = 0.1288 | 0.4733 ± 0.0055
298.15 K, x2 = 0.2423 | 0.4718 ± 0.0054
298.15 K, x2 = 0.3198 | 0.4705 ± 0.0054
298.15 K, x2 = 0.4555 | 0.4684 ± 0.0053
298.15 K, x2 = 0.5341 | 0.4673 ± 0.0053
298.15 K, x2 = 0.6598 | 0.4656 ± 0.0052
298.15 K, x2 = 0.7441 | 0.4647 ± 0.0052
298.15 K, x2 = 0.8407 | 0.4639 ± 0.0052
298.15 K, x2 = 0.8916 | 0.4636 ± 0.0052
298.15 K, x2 = 0.961 | 0.4633 ± 0.0051
313.15 K, x2 = 0.0557 | 0.3913 ± 0.0052
313.15 K, x2 = 0.0959 | 0.3917 ± 0.0051
313.15 K, x2 = 0.1963 | 0.3928 ± 0.0051
313.15 K, x2 = 0.296 | 0.3935 ± 0.0051
313.15 K, x2 = 0.3892 | 0.394 ± 0.0051
313.15 K, x2 = 0.521 | 0.3945 ± 0.005
313.15 K, x2 = 0.5951 | 0.3946 ± 0.005
313.15 K, x2 = 0.6368 | 0.3947 ± 0.005
313.15 K, x2 = 0.8089 | 0.3951 ± 0.0049
313.15 K, x2 = 0.9009 | 0.3959 ± 0.0049
313.15 K, x2 = 0.9526 | 0.3968 ± 0.0049

CCCCN(CCCC)CCCC + CC(C)(C)O
viscosity [mPa·s], [1], 101 kPa
Conditions | x2 = 0.0998 | x2 = 0.2 | x2 = 0.3 | x2 = 0.4 | x2 = 0.5001 | x2 = 0.5999 | x2 = 0.7 | x2 = 0.8 | x2 = 0.9006 | x2 = 0.9503
303.15 K | 1.189 ± 0.015 | 1.202 ± 0.015 | 1.267 ± 0.016 | 1.324 ± 0.016 | 1.394 ± 0.017 | 1.499 ± 0.018 | 1.637 ± 0.02 | 1.878 ± 0.023 | 2.323 ± 0.029 | 2.732 ± 0.033
308.15 K | 1.083 ± 0.014 | 1.108 ± 0.014 | 1.145 ± 0.014 | 1.189 ± 0.015 | 1.242 ± 0.015 | 1.323 ± 0.016 | 1.43 ± 0.017 | 1.598 ± 0.019 | 1.91 ± 0.023 | 2.204 ± 0.027
313.15 K | 0.9915 ± 0.012 | 1.009 ± 0.013 | 1.037 ± 0.013 | 1.072 ± 0.013 | 1.112 ± 0.014 | 1.172 ± 0.014 | 1.251 ± 0.015 | 1.376 ± 0.017 | 1.599 ± 0.019 | 1.809 ± 0.022
318.15 K | 0.9113 ± 0.011 | 0.9236 ± 0.011 | 0.9451 ± 0.012 | 0.9707 ± 0.012 | 1.003 ± 0.012 | 1.048 ± 0.013 | 1.104 ± 0.013 | 1.197 ± 0.015 | 1.356 ± 0.016 | 1.514 ± 0.018
323.15 K | 0.8405 ± 0.011 | 0.8479 ± 0.011 | 0.8641 ± 0.011 | 0.8824 ± 0.011 | 0.908 ± 0.011 | 0.9401 ± 0.011 | 0.9817 ± 0.012 | 1.051 ± 0.013 | 1.166 ± 0.014 | 1.288 ± 0.016

CC(=O)[O-].CCCC[NH3+] + O
Conditions | viscosity [mPa·s]
[1], 293.15 K, 101 kPa, x1 = 0.4013 | 53.35 ± 1.1
